What was measured:
[1] = biological target: T1, human muscarinic M3 receptor (Homo sapiens (Human), UniProt P20309); experiment: Antagonism assay on human muscarinic M3 receptor (carbachol-induced intracellular calcium, FLIPR Calcium 5, transfected Cos-7 cells); type: cell-based; details: functional inhibitory constant; carbachol-induced intracellular calcium in Cos-7 cells transfected with human M3 receptor
Method: [Experimental Example 2] Antagonism Assay on Human Muscarinic M3 Receptor
The antagonism assay for various compounds of the present invention was conducted on antagonism to human M3 receptor in Cos-7 cells that was transfected with plasmid coding human muscarinic M3 receptor. Test compounds in various concentrations were pre-treated to the cells for 3 minutes, and then the changes of intracellular calcium were measured after treating the same with carbachol (i.e. muscarinic receptor agonist). The FLIPR® Calcium 5 assay (Molecular Devices) and Flex3 device (Molecular Devices) were used to measure concentration of calcium. Amounts of calcium before and after carbachol treatment were set as 0% and 100% respectively. Inhibition rates (%) by the compounds for increase in intracellular calcium by carbachol were calculated. The antagonistic potency of the test compounds on human muscarinic M3 receptor was calculated as the functional inhibitory constant (Ki), which can be calculated from concentration (IC50) of compound inhibiting 50% of activity of carbachol according to Cheng and Prusoff equation.

[2] = tested on: rhythmic bladder contractions; experiment: Rhythmic bladder contractions in rats (in vivo); set-up: species or system rat; details: 0.3 mpk, intravenous, female Sprague-Dawley rats; amplitude reduction of bladder contractions
Text: [Experimental Example 3] Experiment on Rhythmic Bladder Contractions in Rats (In Vivo)
Female Sprague-Dawley rat was halothane-anesthetized, and a polyethylene catheter was inserted through urethra lay down straight and fixed. Urine in bladder was excreted through the catheter by gently massaging abdomen of the rat, and then removed. A three-way stopcock was connected to the catheter and a pressure transducer was connected to one side of the three-way stopcock to measure pressure, and a syringe was installed at the other side to inject 37° C. of saline solution. The saline solution was slowly injected until regular bladder contractions occurred repeatedly. When regular bladder contractions occurred stably, test compounds were administered intravenously through the tail vein. Inhibitory effect of the test compounds was evaluated by measuring degree of amplitude reduction of bladder contractions.

[3] = biological target: T1, human muscarinic M3 receptor; experiment: Binding assay on human muscarinic M3 receptor ([3H]-methyl scopolamine displacement); details: membranes overexpressing human M3 receptor, Ki from IC50 by Cheng-Prusoff, read-out: Binding Affinity to M3 Receptor, Ki
In short: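 Displacement of [3H]-methyl scopolamine from membranes overexpressing human M3, in Tris-HCl, 25 °C, 120 min; filter-bound radioactivity counted. Nonspecific binding with 5 μM atropine; Ki from IC50 via Cheng-Prusoff.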

T1 sequence (P20309 whole entry): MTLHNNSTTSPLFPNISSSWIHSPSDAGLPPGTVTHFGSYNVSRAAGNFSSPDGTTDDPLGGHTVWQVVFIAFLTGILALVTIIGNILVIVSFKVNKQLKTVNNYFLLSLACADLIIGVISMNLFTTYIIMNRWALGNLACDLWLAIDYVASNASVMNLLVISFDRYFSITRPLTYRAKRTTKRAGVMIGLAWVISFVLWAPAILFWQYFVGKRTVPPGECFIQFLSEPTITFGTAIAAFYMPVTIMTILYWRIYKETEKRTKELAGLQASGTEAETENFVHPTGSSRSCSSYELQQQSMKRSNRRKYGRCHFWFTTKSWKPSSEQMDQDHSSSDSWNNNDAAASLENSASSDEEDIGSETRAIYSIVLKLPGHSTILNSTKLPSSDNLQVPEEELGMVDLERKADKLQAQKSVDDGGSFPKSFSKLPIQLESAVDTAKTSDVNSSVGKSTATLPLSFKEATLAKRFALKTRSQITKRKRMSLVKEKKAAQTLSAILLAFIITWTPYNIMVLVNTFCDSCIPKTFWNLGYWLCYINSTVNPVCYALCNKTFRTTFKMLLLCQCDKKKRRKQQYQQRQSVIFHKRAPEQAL

SMILES | Ki [1] [nM] | Ki [3] [nM] | Inhibition of Rhythmic bladder contraction in rats [2] [%]
CN1CCCC1CCOC(=O)Nc1ccccc1-c1ccccc1F (centres unmarked) [Example 34, 2-(1-methylpyrrolidin-2-yl)ethyl(2′-fluoro-[1,1′-biphenyl]-2-yl)carbamate] | 2.64 | 19.6 | 20.1 ± 1.8
CN1CC[C@@H](COC(=O)Nc2ccc(Cl)cc2-c2ccc(F)c(Cl)c2)C1 [Example 146, (R)-(1-methylpyrrolidin-3-yl)methyl(3′,5-dichloro-4′-fluoro-[1,1′-biphenyl]-2-yl)carbamate] | 1.57 | 6.85 | 8.2 ± 2.9
CN1CCC[C@H]1COC(=O)Nc1ccccc1-c1ccc(Cl)c(Cl)c1 [Example 166, (S)-(1-methylpyrrolidin-2-yl)methyl(3′,4′-dichloro-[1,1′-biphenyl]-2-yl)carbamate] | 1.33 | 9.04 | 10.2 ± 1.7
CN1CC[C@H](COC(=O)Nc2ccc(F)cc2-c2cc(F)cc(Cl)c2)C1 [Example 129, (S)-(1-methylpyrrolidin-3-yl)methyl(3′-chloro-5,5′-difluoro-[1,1′-biphenyl]-2-yl)carbamate] | 6.24 | 12.6 | 15.7 ± 1.4
CN1CCCC1CCOC(=O)Nc1ccc(Cl)cc1-c1cccc(Cl)c1 (centres unmarked) [Example 70, 2-(1-Methylpyrrolidin-2-yl)ethyl(3′,5-dichloro-[1,1′-biphenyl]-2-yl)carbamate] | 1.95 | 8.17 | 9.7 ± 4.1
CN1CC[C@@H](COC(=O)Nc2ccccc2-c2cc(Cl)cc(Cl)c2)C1 [Example 131, (R)-(1-methylpyrrolidin-3-yl)methyl(3′,5′-dichloro-[1,1′-biphenyl]-2-yl)carbamate] | 1.86 | 12 | 17.8 ± 2.5
CN1CCCC1CCOC(=O)Nc1ccc(F)cc1-c1ccc(F)cc1 (centres unmarked) [Example 19, 2-(1-methylpyrrolidin-2-yl)ethyl(4′,5-difluoro-[1,1′-biphenyl]-2-yl)carbamate] | 1.9 | 4.17 | 12.8 ± 3.0
CN1CC[C@@H](COC(=O)Nc2ccc(F)cc2-c2cc(F)cc(Cl)c2)C1 [Example 142, (R)-(1-methylpyrrolidin-3-yl)methyl(3′-chloro-5,5′-difluoro-[1,1′-biphenyl]-2-yl)carbamate] | 1.04 | 4.88 | 15.1 ± 3.4
CN1CCCC1CCOC(=O)Nc1ccccc1-c1cc(F)cc(F)c1 (centres unmarked) [Example 2, 2-(1-methylpyrrolidin-2-yl)ethyl(3′,5′-difluoro-[1,1′-biphenyl]-2-yl)carbamate] | 6.02 | 8.69 | 20.1 ± 3.1
CN1CCC[C@@H]1COC(=O)Nc1ccccc1-c1ccccc1 [Example 109, (R)-(1-methylpyrrolidin-2-yl)-methyl [1,1′-biphenyl]-2-ylcarbamate] | – | 5.33 | 18.1 ± 1.7
CN1CCCC1CCOC(=O)Nc1ccccc1-c1cc(F)c(F)c(F)c1 (centres unmarked) [Example 3, 2-(1-methylpyrrolidin-2-yl)ethyl(3′,4′,5′-trifluoro-[1,1′-biphenyl]-2-yl)carbamate] | – | 11.6 | 15.9 ± 0.9
CN1CC[C@H](COC(=O)Nc2ccc(F)cc2-c2ccccc2)C1 [Example 93, (S)-(1-methylpyrrolidin-3-yl)methyl (5-fluoro-[1,1′-biphenyl]-2-yl)carbamate] | – | 4.12 | 27.3 ± 1.9
CN1CCCC1CCOC(=O)Nc1ccccc1-c1ccc(F)cc1 (centres unmarked) [Example 1, 2-(1-methylpyrrolidin-2-yl)ethyl(4′-fluoro-[1,1′-biphenyl]-2-yl)carbamate] | – | 4.42 | 26.1 ± 5.1
CN1CCC[C@H]1COC(=O)Nc1ccc(F)cc1-c1cccc(C(F)(F)F)c1 [Example 180, (S)-(1-methylpyrrolidin-2-yl)methyl(5-fluoro-3′-(trifluoromethyl)-[1,1′-biphenyl]-2-yl)carbamate] | – | 9.15 | 6.3 ± 1.3
CN1CCC[C@H]1COC(=O)Nc1ccc(F)cc1-c1ccc(Cl)c(Cl)c1 [Example 177, (S)-(1-methylpyrrolidin-2-yl)methyl (3′,4′-dichloro-5-fluoro-[1,1′-biphenyl]-2-yl)carbamate] | – | 6.32 | 11.3 ± 2.2
CN1CC[C@H](COC(=O)Nc2ccc(F)cc2-c2cccc(F)c2)C1 [Example 108, (S)-(1-methylpyrrolidin-3-yl)-methyl(3′,5-difluoro-[1,1′-biphenyl]-2-yl)carbamate] | – | 3.95 | 18.1 ± 1.4
CN1CCCC1CCOC(=O)Nc1ccccc1-c1cc(Cl)cc(Cl)c1 (centres unmarked) [Example 9, 2-(1-methylpyrrolidin-2-yl)ethyl(3′,5′-dichloro-[1,1′-biphenyl]-2-yl)carbamate] | – | 9.1 | 9.6 ± 1.6
CN1CCC[C@H]1COC(=O)Nc1ccc(F)cc1-c1cc(F)cc(F)c1 [Example 172, (S)-(1-methylpyrrolidin-2-yl)methyl(3′,5,5′-trifluoro-[1,1′-biphenyl]-2-yl)carbamate] | – | 6.15 | 12.4 ± 2.7

Compounds with a lower Ki [3], results first:

Ki [1] [nM] | Ki [3] [nM] | SMILES | Inhibition of Rhythmic bladder contraction in rats [2] [%]
– | 3.79 | Cc1cccc(-c2ccccc2NC(=O)OC[C@H]2CCN(C)C2)c1 [Example 101, (S)-(1-methylpyrrolidin-3-yl)-methyl(3′-methyl-[1,1′-biphenyl]-2-yl)carbamate] | 20.1 ± 1.7
– | 3.77 | CC(C)N1CCC[C@H]1COC(=O)Nc1ccccc1-c1ccccc1 [Example 112, (S)-(1-isopropylpyrrolidin-2-yl)-methyl [1,1′-biphenyl]-2-ylcarbamate] | 34.8 ± 2.9
– | 3.53 | CN1CCC[C@H]1COC(=O)Nc1cc(F)ccc1-c1ccccc1 [Example 204, (S)-(1-methylpyrrolidin-2-yl)methyl (4-fluoro-[1,1′-biphenyl]-2-yl)carbamate] | 23.3 ± 6.6
– | 2.18 | CN1CCC[C@H]1COC(=O)Nc1ccc(F)cc1-c1cccc(F)c1 [Example 202, (S)-(1-methylpyrrolidin-2-yl)methyl (3′,5-difluoro-[1,1′-biphenyl]-2-yl)carbamate] | 17.3 ± 1.3
– | 1.87 | CN1CCC[C@H]1COC(=O)Nc1ccccc1-c1ccc(F)cc1 [Example 198, (S)-(1-methylpyrrolidin-2-yl)methyl(4′-fluoro-[1,1′-biphenyl]-2-yl)carbamate] | 26.3 ± 2.4
– | 1.75 | CN1CC[C@H](COC(=O)Nc2ccccc2-c2ccc(F)c(Cl)c2)C1 [Example 121, (S)-(1-methylpyrrolidin-3-yl)methyl(3′-chloro-4′-fluoro-[1,1′-biphenyl]-2-yl)carbamate] | 31.4 ± 6.1
0.34 | 1.6 | CN1CC[C@@H](COC(=O)Nc2ccccc2-c2cccc(Cl)c2)C1 [Example 117, (R)-(1-methylpyrrolidin-3-yl)methyl(3′-chloro-[1,1′-biphenyl]-2-yl)carbamate] | 15.4 ± 0.1
– | 1.48 | CN1CCCC1CCOC(=O)Nc1ccc(F)cc1-c1ccc(Cl)c(Cl)c1 (centres unmarked) [Example 43, 2-(1-methylpyrrolidin-2-yl)ethyl(3′,4′-dichloro-5-fluoro-[1,1′-biphenyl]-2-yl)carbamate] | 8.9 ± 2.3
– | 1 | CN1CCCC1CCOC(=O)Nc1ccc(F)cc1-c1cccc(Cl)c1 (centres unmarked) [Example 17, 2-(1-methylpyrrolidin-2-yl)ethyl(3′-chloro-5-fluoro-[1,1′-biphenyl]-2-yl)carbamate] | 27.9 ± 6.1
– | 0.78 | CN1CCC[C@H]1COC(=O)Nc1ccccc1-c1ccccc1 [Example 197, (S)-(1-methylpyrrolidin-2-yl)-methyl [1,1′-biphenyl]-2-ylcarbamate] | 32.8 ± 9.7
– | 0.63 | CN1CCC[C@H]1COC(=O)Nc1ccccc1-c1cccc(Cl)c1 [Example 165, (S)-(1-methylpyrrolidin-2-yl)methyl(3′-chloro-[1,1′-biphenyl]-2-yl)carbamate] | 34.5 ± 2.5

— US9828339B2, “Biphenyl derivatives and methods for preparing same” (DONG-A ST CO., LTD, priority 2013, dated 2017)
